Test results from paper PMC3867986 (ACS medicinal chemistry letters, 2013).

What was measured:
Chemical stability = settings: long-term storage, HPLC analysis
[1] = target: BirA (biotin protein ligase) (Mycobacterium tuberculosis, UniProt I6YFP0); assay type: binding; settings: direct stoichiometric titration of BirA, duplicate
Sequence of BirA (biotin protein ligase) (I6YFP0 whole entry, looked up): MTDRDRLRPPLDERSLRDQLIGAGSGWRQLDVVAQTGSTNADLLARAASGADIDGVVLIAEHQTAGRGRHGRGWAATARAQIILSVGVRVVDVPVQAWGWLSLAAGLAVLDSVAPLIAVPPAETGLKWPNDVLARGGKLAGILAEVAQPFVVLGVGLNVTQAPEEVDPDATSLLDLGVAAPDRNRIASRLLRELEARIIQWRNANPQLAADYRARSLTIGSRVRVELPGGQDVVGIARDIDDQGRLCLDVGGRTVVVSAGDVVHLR

SMILES | chemical stability (Chemical stability) | ΔH [1]
CCN(CC)CC.Nc1ncnc2c1ncn2[C@@H]1O[C@H](CCS(=O)(=O)NC(=O)CCCC[C@@H]2SC[C@@H]3NC(=O)N[C@@H]32)[C@@H](O)[C@H]1O [Compound 10] | no degradation upon long-term storage | 
CCN(CC)CC.Nc1nccc2c1ncn2[C@@H]1O[C@H](COS(=O)(=O)NC(=O)CCCC[C@@H]2SC[C@@H]3NC(=O)N[C@@H]32)[C@@H](O)[C@H]1O [Compound 11] |  | -21.2 kcal/mol
CC(C)(C)C#Cc1nc(N)c2ncn([C@@H]3O[C@H](COS(=O)(=O)NC(=O)CCCC[C@@H]4SC[C@@H]5NC(=O)N[C@@H]54)[C@@H](O)[C@H]3O)c2n1.CCN(CC)CC [Compound 13] |  | -13.5 kcal/mol
